# Source: article PMC12005767 (Advanced Science, 2025)
# Tests used:
# myristoylation of SHMT2 = assay: Click chemistry assay of SHMT2 myristoylation in HEK293T cells; assay type: cell-based; conditions: HEK293T cells, 0.25, 0.5 and 1 × 10^−6 M, 24 h
# Method: For click chemistry experiment, HEK293T cells were first incubated with B6 for 24 h, followed by treatment with Alk14 for 4 h prior to harvest.
# After the treatment mentioned in Section 4.2, HepG2 cells were lysed in 1% SDS lysis buffer (50 × 10^−3 M Tris‐HCl pH 8.0, 1% (w/v) SDS) with protease‐phosphatase inhibitor cocktail (ThermoFisher).^[ [47] ^] Click chemistry reactions were performed using commercially available reagents as per manufacturer instructions. 100 µg labeled protein was incubated with 50 µL of streptavidin magnetic beads overnight at 4 °C with end‐over‐end rotation. Following incubation, the beads were collected and rinsed three times with washing buffer. After the final wash, the supernatant was discarded, sample buffer was added to the beads and boiled at 95 °C for 5 min. The samples were further analyzed via western blotting using antibody specific for detection of endogenous SHMT2.
# HDAC3 = target: T1, HDAC3 (Homo sapiens, UniProt O15379); assay: In vitro HDACs inhibition fluorescence assay, HDAC3; assay type: biochemical; conditions: mean ± SEM
# T1 construct: purchased BPS Bioscience
# Method: (§1) In Vitro HDACs Inhibition Fluorescence Assay: For the inhibitory activity against HDAC1‐10, enzymes were also procured from BPS Bioscience. The in vitro […] inhibition assays were conducted following the established method described previously.^[ [45] ^] The working concentrations of HDAC1‐10 were 4 × 10^−9 M. The fluorogenic substrate of HDAC1, 2, 3, and 6 was Boc‐Lys (acetyl)‐AMC, and the substrate of HDAC4, 5, 7, 8, 9, and 10 was Boc‐Lys (trifluoroacetyl) AMC. The developer solution consists of 30 mg mL^−1 trypsin and 5 × 10^−6 M TSA. A standing period of 30 min was sufficient before assessing the fluorescence intensity.
# [1] = Hydrophilicity / dissolution in 5% DMSO aqueous solution (HPLC); assay type: physicochemical; conditions: Figure S2
# Method: Figure S2. (A) Liquid chromatograms of compounds A8 and B6 in methanol and 5% DMSO aqueous solution, respectively. The chromatograms were determined with an Agilent 1260 HPLC, using an Agilent 5 TC-C18 column (5 μm, 250mm× 4.6 mm). The eluent system was made up of solvent A (water) and solvent B (methanol). Elution conditions: phase B was 85% The peaks were detected at 254 nm at a flow rate was 1.0 mL/min. (B) The peak areas of serially diluted compound B6 were determined under the above-mentioned liquid chromatographic conditions, and a linear regression equation was fitted. (C) The dissolution status/solubility condition of compounds A8 and B6 in a 5% DMSO aqueous solution.
# HDAC7 = target: T2, HDAC7 (Homo sapiens, UniProt Q8WUI4); assay: In vitro HDACs inhibition fluorescence assay, HDAC7; assay type: biochemical; conditions: mean ± SEM
# T2 construct: purchased BPS Bioscience
# Method: as §1
# [2] = test system: SREBP1c, FASN, SCD1, CPT1A, PGC1α, PPARα expression in AML12 cells; assay: Protein and mRNA expression of DNL and fatty acid oxidation genes in FFA-treated AML12 cells; assay type: cell-based
# Method: Western blot was carried out as described.^[ [49] ^] In brief, samples were lysed with a lysis buffer. The same quantity of total proteins (40–60 µg) from each sample was separated on SDS‐PAGE followed by transfer onto a nitrocellulose filter membrane and incubation with the indicated antibodies. After incubation with secondary antibodies, the protein bands were visualized using a chemiluminescence imaging system. All samples in the same group were processed simultaneously.
# Cells and liver tissues were extracted for total RNA. A reverse transcription kit was used to synthesize cDNA. qRT‐PCR was performed with the primers listed in Table S1 (Supporting Information) using the SYBR green PCR master mix. The coding sequence of the target gene was found in NCBI, and Primer3 (v.0.4.0) was used to design amplification primers. The results were normalized by β‐actin in the corresponding sample.
# T1 sequence (O15379 whole entry): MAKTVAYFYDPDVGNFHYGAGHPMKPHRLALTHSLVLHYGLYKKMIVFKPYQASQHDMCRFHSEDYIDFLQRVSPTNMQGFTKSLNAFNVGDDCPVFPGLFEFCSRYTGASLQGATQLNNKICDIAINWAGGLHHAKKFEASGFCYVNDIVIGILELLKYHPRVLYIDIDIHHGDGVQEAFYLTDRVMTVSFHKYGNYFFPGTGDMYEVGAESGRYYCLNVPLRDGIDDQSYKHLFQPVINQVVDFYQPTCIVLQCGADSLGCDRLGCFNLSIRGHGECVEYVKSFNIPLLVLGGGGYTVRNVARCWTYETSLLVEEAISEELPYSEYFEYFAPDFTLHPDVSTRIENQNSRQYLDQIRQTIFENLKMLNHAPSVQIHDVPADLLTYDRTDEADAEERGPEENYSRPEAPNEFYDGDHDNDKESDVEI
# T1 sequence (Q9Y618 395-489 partner limits assumed): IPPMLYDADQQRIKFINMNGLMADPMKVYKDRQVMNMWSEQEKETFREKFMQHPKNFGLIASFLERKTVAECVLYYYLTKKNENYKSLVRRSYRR
# T2 sequence (Q8WUI4 whole entry): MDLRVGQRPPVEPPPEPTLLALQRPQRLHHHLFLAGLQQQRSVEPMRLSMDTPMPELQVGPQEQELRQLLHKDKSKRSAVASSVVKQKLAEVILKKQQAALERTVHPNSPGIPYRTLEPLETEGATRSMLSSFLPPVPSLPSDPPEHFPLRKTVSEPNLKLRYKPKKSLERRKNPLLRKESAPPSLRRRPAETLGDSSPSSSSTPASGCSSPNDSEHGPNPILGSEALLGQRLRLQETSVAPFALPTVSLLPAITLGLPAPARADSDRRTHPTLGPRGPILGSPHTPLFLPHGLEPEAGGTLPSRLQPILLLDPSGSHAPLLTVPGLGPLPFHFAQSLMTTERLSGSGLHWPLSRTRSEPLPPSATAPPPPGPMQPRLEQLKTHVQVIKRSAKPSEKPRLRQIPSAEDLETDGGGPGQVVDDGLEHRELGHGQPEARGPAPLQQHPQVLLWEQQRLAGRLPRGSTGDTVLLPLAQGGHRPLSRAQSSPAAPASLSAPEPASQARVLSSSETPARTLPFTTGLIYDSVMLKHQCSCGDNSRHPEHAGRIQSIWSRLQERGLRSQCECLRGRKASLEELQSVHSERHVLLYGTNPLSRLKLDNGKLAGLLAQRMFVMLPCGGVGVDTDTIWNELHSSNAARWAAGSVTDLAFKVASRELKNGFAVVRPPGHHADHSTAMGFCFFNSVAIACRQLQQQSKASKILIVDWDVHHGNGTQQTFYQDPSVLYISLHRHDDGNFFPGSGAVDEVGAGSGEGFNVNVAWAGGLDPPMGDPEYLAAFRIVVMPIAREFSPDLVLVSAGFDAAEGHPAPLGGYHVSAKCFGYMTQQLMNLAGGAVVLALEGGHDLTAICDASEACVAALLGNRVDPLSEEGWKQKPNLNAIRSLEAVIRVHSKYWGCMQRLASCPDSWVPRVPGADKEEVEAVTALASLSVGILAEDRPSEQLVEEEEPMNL
compound,measurement,setting,value
CCCCCOCCCCCNNC(=O)c1ccc(CNC(=O)c2ccccc2)cc1 [B6],myristoylation of SHMT2,myristoylation of SHMT2,markedly increase
same,IC50,HDAC3,> 10 µM
same,hydrophilicity relative to parent compound A8,[1],improved the hydrophilicity
same,IC50,HDAC7,> 10 µM
same,"FFA-suppressed protein and mRNA expression of CPT1A, PGC1α and PPARα",[2],partially restored
same,"FFA-upregulated protein and mRNA expression of SREBP1c, FASN and SCD1","[2]; 0.5 × 10^−6 M, 24 h",reversed
